Source: a melting point compilation (Tetko et al.; mined from patent text by program, amines drawn as free bases though some values may be those of a salt)

Structure (SMILES) | melting point
CSCCC(NC(=O)OCc1ccccc1)C(N)=O (racemic) | 120 to 122 °C
CC#CCOc1ccc(S(=O)(=O)C(C(=O)NO)c2ccc(Cl)cc2)cc1 (configuration not stated) | 140 °C
O=Cc1cccc(/C=C/c2nc3cc(F)ccc3s2)c1 | 151 to 152 °C
O=C(Oc1ccc(C(=O)OCc2ccccc2)cc1)C(=O)Oc1ccc(C(=O)OCc2ccccc2)cc1 | 106 to 108 °C
C=CC(=O)Nc1ccc2ncnc(Nc3cccc(Br)c3)c2c1 | 258 to 261 °C
CNC(=O)COC(=O)N1CCN(CCOc2ccc(Cl)cc2)CC1 | 159 to 161 °C
CC(=O)NC1c2cc3nonc3cc2OC(C)(C)C1OC(C)=O (configuration not stated) | 236 to 238 °C
CCOC(=O)c1cc2c(C)c([N+](=O)[O-])c(C)c(C)c2o1 | 126 to 128 °C
Cc1ccc2c(c1)S(=O)(=O)c1cc(C)ccc1O2 | 175 to 176 °C
CCCn1c(=O)c2[nH]c(-c3ccc(C=C(C(=O)OCC)C(=O)OCC)o3)nc2n(CCC)c1=O | 220 to 222 °C
CCOC(=O)NC(=O)C(c1cccc(C)c1)c1ncc(C(F)(F)F)cc1Cl (configuration not stated) | 146 to 147 °C
CC#CCOc1ccc(S(=O)[C@@H](C(=O)NO)c2ccc(-c3cccs3)cc2)cc1 (some centres not stated) | 158 °C
CCC(Oc1ncn(-c2ccc(Cl)c(Cl)c2)n1)C(=O)O (configuration not stated) | 232 to 234 °C
Cc1ccc(S(=O)(=O)Nc2ccc(C3SC(=O)NC3=O)cc2)cc1 (configuration not stated) | 215 to 218 °C
O=C(O)C1=CSC2C(=Cc3cc4c(s3)-c3cccnc3SC4)C(=O)N12 (configuration not stated) | 113 to 115 °C
CC1(C)C(=O)Nc2ccc(C(=O)O)cc21 | > 250 °C
COC(=O)C1=C(C)NC(C)=C(C(=O)O)C1c1cccc([N+](=O)[O-])c1 (configuration not stated) | 196 to 197 °C
C=CCCn1c(C(=O)c2cc(C)cc(C#N)c2)c(C(C)C)c(=O)[nH]c1=O | 133 to 134 °C
CCCCCCC(O)Cn1ccnc1 (configuration not stated) | 44 to 45.5 °C
Cc1ccc(C2c3c(C)c(N4Cc5ccccc5C4)c(C)c(C)c3OC2(C)C)cc1 (configuration not stated) | 141 to 143 °C
O=C(CC1COC1)N[C@H]1CC[C@H](CCN2CCN(c3cccc4c3OCO4)CC2)CC1 | 190 °C
OCc1cn(-c2ccc(OC(F)(F)F)c(Cl)c2)cn1 | 115 to 116 °C
CC(c1cc(Cl)cc(Cl)c1O)c1cc(F)cc(Cc2cc(Cl)cc(Br)c2O)c1O (configuration not stated) | 171 °C
CCn1cc(-c2cnccn2)cc(Br)c1=O | 129 to 132 °C
O=C(O)COc1cc(C(=O)O)nc2ccc(Cl)cc12 | 260 °C
COc1ccc2c(c1)C(N)(CCC#N)C(=O)N2c1ccc(F)cc1 (configuration not stated) | 136 to 138 °C
O=[N+]([O-])c1ccc2oc(CO)cc2c1 | 115 to 116 °C

The remaining lines, values ahead:

melting point | Structure (SMILES)
182 to 185 °C | CCCc1c(OCCCOc2ccc(C(=O)C(=O)O)cc2)ccc(C(=O)O)c1O
160 °C | O=C(Nc1ccc2[nH]nc(C#Cc3ccccc3)c2c1)N[C@@H](c1ccc(Cl)c(Cl)c1)[C@@H]1CCCCN1
134 to 135 °C | CC(C)(C)c1ccc(CC(=O)CCC2CCCCC2)cc1NC(=O)CC1c2ccccc2Oc2ccccc21
184 to 186 °C | COc1cc([N+](=O)[O-])c2nccc(C)c2c1Oc1ccc(F)cc1
182 °C | Cn1c(CCN2CCC(c3ccccc3)CC2)nc2ccc3ccccc3c21
228 to 230 °C | c1cnc2[nH]cc(CN3CCc4ccc(-c5ccsc5)cc4C3)c2c1
124 to 126 °C | CNc1nc(-c2cccc(NC(=O)c3cccc(Cl)c3)c2)c2cc(OC)c(OC)cc2n1
224 to 226 °C | O=C(Nc1ccccc1Oc1ccccc1-c1nnn[nH]1)c1ccc(OCc2ccc3ccccc3n2)cc1
192 °C | CC(C)(N)c1ccc(-c2nc(Nc3ccc(F)c(F)c3)ncc2C#N)cc1
78 to 80 °C | CS(=O)(=O)N(C(=O)OCc1ccccc1)c1cc(OC[C@@H]2CO2)ccc1OCc1ccccc1
116 °C | COCCN(C)C(=O)COc1cc(-c2ccc(C)cc2)nc2cccc(C(F)(F)F)c12
305 °C | COc1ccc2nc3c(c(-c4ccc(C(F)(F)F)cc4)c2c1)CNC3=O
187 to 188 °C | CCCN1CCc2[nH]c3ccc4scc(-c5ccccc5)c4c3c2C1
231 to 232 °C | Nc1ncnc2c1ncn2Cc1ccccc1
124 to 125 °C | CCCCOCCOc1ccc(-c2ccc3c(c2)C=C(C(=O)O)CCN3CC2CCCCC2)cc1
146 to 147 °C | CC(C)n1nc(-c2c(-c3ccccc3)nn3ccc(OCCC4CCCCC4)cc23)ccc1=O
255 °C | CC(=O)Nc1ccc(Oc2c(NCc3ccccc3)cc(C(=O)O)cc2S(N)(=O)=O)cc1
215 to 218 °C | COc1ccc(/C=C/C(=O)N2CC(CCl)c3c2cc(O)c2ncccc32)cc1O (configuration not stated)
85 to 89 °C | O=C(CC(Cc1ccccc1)C(=O)O)c1cccc(Cl)c1 (configuration not stated)
144 °C | COc1ccccc1-c1nc(=O)c2ccccc2s1

melting point | Structure (SMILES)
77 to 80 °C | O=C(O)C1CCC=C(c2ccccc2)C1 (configuration not stated)
256 to 258 °C | CC(=O)Oc1ccc(-c2ccc3cc(C(=O)O)ccc3c2)cc1
165 to 166 °C | COc1ccc(-c2csc(N(C)c3cc4ccccc4cn3)n2)cc1OC
101 to 102 °C | CS(=O)(=O)c1ccc2c(c1)c1c(n2Cc2ccc(Cl)cc2)C(CC(=O)O)CCC1 (configuration not stated)
> 50 °C | Cc1cc(NS(=O)(=O)c2ccccc2)cc(C)c1S(=O)C[N+](=O)[O-] (configuration not stated)
175 to 180 °C | N#Cc1ccc(Nc2nc(Cc3c(Cl)cccc3Cl)cc(NC(=O)CN3CCCCC3)n2)cc1
164 to 167 °C | O=C1c2c(OCc3ccccc3)c(OCc3ccccc3)cc(OCc3ccccc3)c2-c2nn(CCNCCO)c3ccc(Cl)c1c23
135 to 139 °C | CC(C)NCC(O)COc1ccc(-c2cc3ncccc3c(=O)n2C)cc1 (configuration not stated)
167 to 168 °C | COc1cccc(CC(=O)O)c1OCCCc1cn(-c2ncc(C#N)cn2)nc1C(C)C
176 °C | CC(=O)N=C(N(C)C(C)=O)N(C)C1CCN(c2nc3ccccc3n2Cc2ccc(F)cc2)CC1
227 to 229 °C | COc1cccc(CNC(=O)c2nc3ccc(F)c(OCCc4ccc(C(=O)O)cc4)c3c(=O)[nH]2)c1
131 to 134 °C | CS(=O)(=O)Nc1ccc(C(=O)CN(Cc2ccccc2)Cc2ccccc2)cc1
188 to 190 °C | COc1ccc(-c2nc(S(=O)c3ccccc3)[nH]c2-c2ccc(OC)cc2)cc1 (configuration not stated)
148 °C | CCCn1ncnc1COc1nn2c(-c3ccc(F)cc3)nncc2c1-c1ccccc1F
186 to 187 °C | CC=CCNc1cc(C(=O)O)cc(S(N)(=O)=O)c1-c1ccccc1
178 °C | CCCCn1ccc(-c2ccc3c(c2)OCCN3[C@H]2CC[C@H](O)CC2)c(Cl)c1=O
179 to 180 °C | COc1c(C2CCN(CCCCNC(=O)c3sc(-c4ccc(C(F)(F)F)cc4)nc3CO)CC2)ccc2c1CCCC2
118 to 121 °C | C=C(CN1C(=O)c2ccccc2C1=O)c1ccccc1
143 to 144 °C | O=C(c1ccc(-c2cnc3c(c2)N(Cc2cc(F)ccc2F)CCN3)cc1)N1CCC[C@H]1CN1CCCC1
170 to 171 °C | CCN1CCN(c2ccc(NC(=O)Nc3ccc(Oc4cc(Cl)ncn4)cc3)cc2OC)CC1
